Reference: US10968227B2, “Isoquinoline ether compounds as mGluR4 allosteric potentiators, compositions, and methods of treating neurological dysfunction” (Vanderbilt University, priority 2016, dated 2021)
In brackets after ≈: the same amount, converted by molar mass.

Key:
2C9 = 2C9 (Homo sapiens (Human), UniProt P11712); assay: CYP 2C9 inhibition; assay type: in vitro ADME
Brain-plasma partition = assay type: in vivo; conditions: rat; for unbound brain-to-plasma partition coefficient (Kp,uu): unbound brain-plasma ratio, read-out: Brain-Plasma Kp,ω
3A4 = 3A4 (Homo sapiens (Human), UniProt P08684); assay: CYP 3A4 inhibition; assay type: in vitro ADME
3A4, sequence (P08684 whole entry): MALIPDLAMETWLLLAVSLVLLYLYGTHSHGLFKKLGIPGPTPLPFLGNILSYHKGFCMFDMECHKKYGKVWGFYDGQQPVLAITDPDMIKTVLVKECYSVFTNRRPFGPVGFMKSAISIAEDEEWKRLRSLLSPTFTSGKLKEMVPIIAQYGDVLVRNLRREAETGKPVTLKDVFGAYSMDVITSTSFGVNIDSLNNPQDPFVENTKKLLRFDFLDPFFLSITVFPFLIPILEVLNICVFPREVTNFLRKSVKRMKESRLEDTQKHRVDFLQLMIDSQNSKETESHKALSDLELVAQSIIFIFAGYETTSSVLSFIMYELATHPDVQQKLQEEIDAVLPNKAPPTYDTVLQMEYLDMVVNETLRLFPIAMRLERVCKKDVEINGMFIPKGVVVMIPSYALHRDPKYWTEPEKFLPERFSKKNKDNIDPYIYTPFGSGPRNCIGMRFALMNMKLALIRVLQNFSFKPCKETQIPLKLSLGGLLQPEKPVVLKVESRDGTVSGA

[1] = Rat intrinsic and hepatic clearance; assay type: in vitro ADME
[2] = Rat brain fraction unbound; assay type: in vitro ADME; conditions: read-out: Rat Fu Brain
[3] = Human intrinsic and hepatic clearance; assay type: in vitro ADME
[4] = Rat plasma fraction unbound; assay type: in vitro ADME; conditions: read-out: Rat Fu Plasma
[5] = Human plasma fraction unbound; assay type: in vitro ADME; conditions: read-out: Human Fu Plasma
2D6 = 2D6 (Homo sapiens (Human), UniProt P10635); assay: CYP 2D6 inhibition; assay type: in vitro ADME
2D6, sequence (P10635 whole entry): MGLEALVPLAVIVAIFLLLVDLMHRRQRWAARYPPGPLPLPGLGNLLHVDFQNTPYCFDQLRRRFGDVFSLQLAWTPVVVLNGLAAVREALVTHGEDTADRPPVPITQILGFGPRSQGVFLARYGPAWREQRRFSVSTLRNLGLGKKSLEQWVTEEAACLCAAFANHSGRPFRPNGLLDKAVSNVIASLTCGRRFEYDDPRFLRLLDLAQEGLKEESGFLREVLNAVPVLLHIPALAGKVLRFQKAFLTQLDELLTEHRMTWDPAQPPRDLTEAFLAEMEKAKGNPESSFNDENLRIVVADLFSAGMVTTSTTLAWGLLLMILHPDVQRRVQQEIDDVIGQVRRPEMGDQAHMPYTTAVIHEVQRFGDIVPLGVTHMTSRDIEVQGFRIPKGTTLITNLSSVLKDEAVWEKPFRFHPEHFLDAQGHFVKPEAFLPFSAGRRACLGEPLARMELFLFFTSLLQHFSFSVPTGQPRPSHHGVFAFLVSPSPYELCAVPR

1A2 = 1A2 (Homo sapiens (Human), UniProt P05177); assay: CYP 1A2 inhibition; assay type: in vitro ADME
1A2, sequence (P05177 whole entry): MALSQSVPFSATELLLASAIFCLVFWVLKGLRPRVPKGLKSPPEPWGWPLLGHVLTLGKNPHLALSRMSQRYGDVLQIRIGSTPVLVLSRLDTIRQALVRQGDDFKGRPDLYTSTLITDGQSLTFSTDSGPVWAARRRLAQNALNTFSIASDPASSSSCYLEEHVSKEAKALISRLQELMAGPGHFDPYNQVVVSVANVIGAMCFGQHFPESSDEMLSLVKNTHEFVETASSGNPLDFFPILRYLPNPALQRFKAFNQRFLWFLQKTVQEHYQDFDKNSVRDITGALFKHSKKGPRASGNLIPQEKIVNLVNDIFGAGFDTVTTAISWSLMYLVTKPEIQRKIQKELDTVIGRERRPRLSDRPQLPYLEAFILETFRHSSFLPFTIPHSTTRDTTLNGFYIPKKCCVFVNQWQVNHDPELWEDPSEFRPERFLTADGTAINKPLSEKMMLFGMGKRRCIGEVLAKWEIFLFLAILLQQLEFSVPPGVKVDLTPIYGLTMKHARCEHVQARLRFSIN

mGlu4 = mGlu4 (Homo sapiens, UniProt Q14833); assay: mGluR4 potentiation (PAM) fluorescence assay with EC20 agonist; assay type: cell-based
mGlu4, sequence (Q14833 33-912 limits assumed): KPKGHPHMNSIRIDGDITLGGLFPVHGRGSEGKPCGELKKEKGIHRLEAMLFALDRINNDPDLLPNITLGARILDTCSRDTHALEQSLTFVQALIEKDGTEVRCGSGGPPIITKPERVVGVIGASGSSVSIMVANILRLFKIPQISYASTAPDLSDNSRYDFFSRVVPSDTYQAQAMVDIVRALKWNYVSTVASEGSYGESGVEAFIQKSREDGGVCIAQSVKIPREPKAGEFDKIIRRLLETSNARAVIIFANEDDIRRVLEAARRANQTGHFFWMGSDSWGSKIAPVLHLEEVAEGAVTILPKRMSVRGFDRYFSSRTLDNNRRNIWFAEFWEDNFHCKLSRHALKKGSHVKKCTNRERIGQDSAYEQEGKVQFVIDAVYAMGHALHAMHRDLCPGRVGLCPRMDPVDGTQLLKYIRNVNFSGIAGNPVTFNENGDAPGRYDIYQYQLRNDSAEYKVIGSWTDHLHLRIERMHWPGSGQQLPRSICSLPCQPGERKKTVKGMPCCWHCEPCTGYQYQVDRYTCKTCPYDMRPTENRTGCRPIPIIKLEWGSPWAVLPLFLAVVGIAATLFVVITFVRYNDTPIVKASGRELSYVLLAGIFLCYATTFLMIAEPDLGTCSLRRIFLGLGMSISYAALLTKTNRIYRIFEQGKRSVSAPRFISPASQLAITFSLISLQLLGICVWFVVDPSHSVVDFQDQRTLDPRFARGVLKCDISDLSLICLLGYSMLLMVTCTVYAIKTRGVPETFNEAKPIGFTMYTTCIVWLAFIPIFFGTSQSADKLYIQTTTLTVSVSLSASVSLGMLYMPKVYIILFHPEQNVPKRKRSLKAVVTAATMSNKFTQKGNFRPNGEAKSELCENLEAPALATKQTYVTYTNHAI
Experimental: The disclosed compounds and compositions can be evaluated for their ability to act as a potentiator of metabotropic glutamate receptor activity, in particular mGluR4 activity, by any suitable known methodology known in the art. For example, Chinese Hamster Ovary (CHO) cells transfected with human mGluR4 or HEK cells co-transfected with rat mGuR4 and the G-protein regulated Inwardly Rectifying Potassium channel (GIRK) were plated in clear bottom assay plates for assay in a Hamamatsu FDSS Fluorometric Plate Reader. The cells were loaded with either a Ca2+-sensitive fluorescent dye or the thallium responsive dye and the plates were washed and placed into a suitable kinetic plate reader. For human mGuR4 assays, a fluorescence baseline was established for 3-5 seconds, the disclosed compounds were then added to the cells, and the response in cells was measured. Approximately two and a half minutes later, a concentration of mGuR4 orthosteric agonist (e.g. glutamate or L-AP4) eliciting approximately 20% (EC20) of the maximal agonist response was added to the cells, and the response was measured. Two minutes later, a concentration of mGluR4 agonist (e.g. glutamate or L-AP4) eliciting 80% (EC80) of the maximal agonist response was added to the cells, and the response was measured. […] If the compound acts as a noncompetitive antagonist, an IC50 value is determined by non-linear curve fitting. […]

Rat in vivo clearance = conditions: read-out: Rat in Vivo CL
Kinetic solubility = assay type: physicochemical; conditions: kinetic from dmso stock

2C9, sequence (P11712 whole entry): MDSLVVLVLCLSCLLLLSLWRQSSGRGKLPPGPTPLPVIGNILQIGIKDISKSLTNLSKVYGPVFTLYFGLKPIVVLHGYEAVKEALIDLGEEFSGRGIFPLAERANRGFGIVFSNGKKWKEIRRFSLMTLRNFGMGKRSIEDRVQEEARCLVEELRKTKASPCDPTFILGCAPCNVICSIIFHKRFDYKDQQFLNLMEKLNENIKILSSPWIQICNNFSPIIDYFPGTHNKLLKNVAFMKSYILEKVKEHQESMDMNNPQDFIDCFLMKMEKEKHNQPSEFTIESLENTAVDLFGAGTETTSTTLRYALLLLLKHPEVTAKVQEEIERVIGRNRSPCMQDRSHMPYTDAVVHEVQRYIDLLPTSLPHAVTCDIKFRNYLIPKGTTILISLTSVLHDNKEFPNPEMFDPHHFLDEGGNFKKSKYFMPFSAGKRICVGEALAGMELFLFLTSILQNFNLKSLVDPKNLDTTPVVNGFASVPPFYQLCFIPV

SMILES | IC50 (2C9) [µM] | Kp (Brain-plasma partition) | unbound brain-to-plasma partition coefficient (Kp,uu) (Brain-plasma partition) | IC50 (3A4) [µM] | CLint scaled [1] [mL/min/kg] | Rat CLhep [1] [mL/min/kg] | fraction unbound [2] | CLint scaled [3] [mL/min/kg] | Human CLhep [3] [mL/min/kg] | fraction unbound [4] | fraction unbound [5] | IC50 (2D6) [µM] | IC50 (1A2) [µM] | EC50 (mGlu4) [µM] | clearance (Rat in vivo clearance) [mL/min/kg] | solubility kinetic (Kinetic solubility) [µM]
c1cnc2c(Nc3ccc4c(OCC5CCCCO5)nccc4c3)n[nH]c2c1 (centres unmarked) [Compound 56] | 3.56 | 1.09 | 0.23 | 22.6 | 348 | 58.3 | 0.003 | 72.3 | 16.3 | 0.014 | 0.007 | 22.2 | 8.43 | 0.0788 | – | –
c1cnc2c(Nc3ccc4c(OCC5COCCO5)nccc4c3)n[nH]c2c1 (centres unmarked) [Compound 73] | 15.3 | 0.57 | 0.15 | 29.5 | 120 | 44.2 | 0.01 | 26.5 | 11.5 | 0.039 | 0.038 | > 30 | 16.4 | – | 32.7 | 2.4 ± 0.5 (≈ 0.906 µg/mL)
c1cc2cc(Nc3n[nH]c4nccnc34)ccc2c(O[C@@H]2CCOC2)n1 [Compound 58] | > 30 | 1.29 | 0.33 | > 30 | 122 | 44.4 | 0.014 | 32.4 | 12.7 | 0.055 | 0.032 | > 30 | > 30 | – | 116 | –
c1cnc2c(Nc3ccc4c(O[C@H]5CCOC5)nccc4c3)n[nH]c2c1 [Compound 64] | 10.6 | 1.22 | 0.2 | 27.7 | 94.8 | 40.3 | 0.007 | 29.1 | 12.2 | 0.042 | 0.02 | > 30 | 7.99 | – | 59.8 | 4.9 ± 0.6 (≈ 1.7 µg/mL)
CO[C@H](C)COc1nccc2cc(Nc3n[nH]c4cccnc34)ccc12 [Compound 70] | 6.87 | 2.56 | 0.48 | 11.4 | 238 | 54.1 | 0.006 | 57 | 15.3 | 0.032 | 0.017 | 22.5 | 4.96 | – | 74.2 | 2.9 ± 0.4 (≈ 1.01 µg/mL)
c1cc2cc(Nc3n[nH]c4nccnc34)ccc2c(OCC2CCOC2)n1 (centres unmarked) [Compound 85] | > 30 | 0.66 | 0.45 | > 30 | 95.7 | 40.4 | 0.013 | 41.2 | 13.9 | 0.019 | 0.026 | > 30 | > 30 | – | 36.9 | 0.6 ± 0.1 (≈ 0.217 µg/mL)
c1cc2cc(Nc3n[nH]c4nccnc34)ccc2c(OCC2CCCCO2)n1 (centres unmarked) [Compound 57] | – | 0.89 | 0.24 | – | 211 | 52.6 | 0.004 | 53.8 | 15.1 | 0.015 | 0.011 | – | – | 0.0697 | – | –
C[C@H]1C[C@H](Oc2nccc3cc(Nc4n[nH]c5ncccc45)ccc23)CO1 [Compound 88] | > 30 | 2.22 | 0.21 | > 30 | 79.9 | 37.3 | 0.003 | 18.1 | 9.71 | 0.032 | 0.01 | > 30 | 17 | – | 43.3 | 0.5 ± 0.2 (≈ 0.181 µg/mL)
c1cnc2c(Nc3ccc4c(OC5CCOCC5)nccc4c3)n[nH]c2c1 [Compound 60] | 3.9 | 1.44 | 0.39 | 12.3 | 94.1 | 40.1 | 0.008 | 16.1 | 8.79 | 0.03 | 0.02 | 23.5 | 5.68 | – | 81.6 | –
c1cnc2c(Nc3ccc4c(O[C@H]5CCCOC5)nccc4c3)n[nH]c2c1 [Compound 61] | 6.04 | 1.83 | 0.23 | 4.29 | 333 | 57.8 | 0.005 | 44 | 14.2 | 0.04 | 0.028 | 19.7 | 5.86 | – | 61 | –
c1cnc2[nH]nc(Nc3ccc4c(OCC5COCCO5)nccc4c3)c2c1 (centres unmarked) [Compound 80] | 26.9 | 0.46 | 0.09 | > 30 | 376 | 59.0 | 0.007 | 22.4 | 10.8 | 0.037 | 0.033 | > 30 | > 30 | – | – | 1.4 ± 0.1 (≈ 0.528 µg/mL)
c1cc2cc(Nc3n[nH]c4nccnc34)ccc2c(OCC2COCCO2)n1 (centres unmarked) [Compound 86] | > 30 | 0.35 | 0.11 | > 30 | 58.1 | 31.7 | 0.018 | 19 | 10.0 | 0.057 | 0.063 | > 30 | > 30 | – | – | 0.6 ± 0.2 (≈ 0.227 µg/mL)
C[C@H]1C[C@H](Oc2nccc3cc(Nc4n[nH]c5cccnc45)ccc23)CO1 [Compound 87] | 1.85 | – | – | > 30 | 61 | 32.6 | – | 16 | 9.07 | – | – | > 30 | 15.8 | – | 39.1 | 0.7 ± 0.4 (≈ 0.253 µg/mL)
COCCOc1nccc2cc(Nc3n[nH]c4cccnc34)ccc12 [Compound 67] | 22 | 1.11 | 0.2 | 9.45 | 113 | 43.2 | 0.007 | 35.2 | 13.2 | 0.039 | 0.024 | > 30 | 4.76 | – | 82.2 | 5.5 ± 0.5 (≈ 1.84 µg/mL)
